These compounds were tested on HBV (assay: Viral load production from HepAD38 cells, qPCR of the HBV core sequence in supernatant). Settings: Hepatitis B virus, HePAD38, 120 h, HepAD38 cells, 5 days, HBV DNA in supernatant by qPCR; Table 1 ranges; read-out: Activity (viral load lowering EC50).
Type: cell-based
Summary of the method: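 EC50 and CC50 come from four-parameter logistic fits of supernatant HBV core DNA (TaqMan qPCR, DNA standards, compared with DMSO wells) and of CellTiter-Glo luminescence.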

Row | Structure (SMILES) | EC50
1 | Cn1nc(C2CC3CC(O)(c4ncc(C(F)(F)F)s4)CC3C2)c(C(=O)Nc2ccc(F)c(Cl)c2)c1N (centres unmarked) [Example 148] | 0.01 to 0.05 µM
2 | Cn1nc(C2CC3CC(O)(c4nc(C(F)(F)F)cs4)CC3C2)c(C(=O)Nc2ccc(F)c(Cl)c2)c1N (centres unmarked) [Example 149] | 0.01 to 0.05 µM
3 | Cn1cc(Br)c(C2(O)CC3CC(c4nn(C)c(N)c4C(=O)Nc4ccc(F)c(Cl)c4)CC3C2)n1 (centres unmarked) [Example 150] | < 0.01 µM
4 | Cn1nc(C2CC3CC(O)(c4sc(C(F)(F)F)nc4Br)CC3C2)c(C(=O)Nc2ccc(F)c(Cl)c2)c1N (centres unmarked) [Example 151] | 0.05 to 0.5 µM
5 | Cn1nc(C2CC3CC(O)(c4nc5cc(F)c(F)cc5n4C)CC3C2)c(C(=O)Nc2ccc(F)c(Cl)c2)c1N (centres unmarked) [Example 152] | 0.01 to 0.05 µM
6 | Cn1ccc(C2(O)CC3CC(c4nn(C)c(N)c4C(=O)Nc4ccc(F)c(Cl)c4)CC3C2)n1 (centres unmarked) [Example 153] | < 0.01 µM
7 | Cc1cc(C2(O)CC3CC(c4nn(C)c(N)c4C(=O)Nc4ccc(F)c(Cl)c4)CC3C2)c(F)cn1 (centres unmarked) [Example 154] | < 0.01 µM
8 | Cn1nc(N)cc1C1(O)CC2CC(c3nn(C)c(N)c3C(=O)Nc3ccc(F)c(Cl)c3)CC2C1 [Example 155, 5-amino-3-((2 s,3aR,5r,6aS)-5-(3-amino-1-methyl-1H-pyrazol-5-yl)-5-hydroxyoctahydropentalen-2-yl)-N-(3-chloro-4-fluorophenyl)-1-methyl-1H-pyrazole-4-carboxamide] | < 0.01 µM
9 | Cn1nc(C2CC3CC(O)(c4c[nH]nc4C(F)(F)F)CC3C2)c(C(=O)Nc2ccc(F)c(Cl)c2)c1N (centres unmarked) [Example 156, 5-amino-N-(3-chloro-4-fluorophenyl)-3-(5-hydroxy-5-(3-(trifluoromethyl)-1H-pyrazol-4-yl)octahydropentalen-2-yl)-1-methyl-1H-pyrazole-4-carboxamide] | < 0.01 µM
10 | Cn1nc(C2CC3CC(O)(c4cn(COP(=O)(O)O)nc4C(F)(F)F)CC3C2)c(C(=O)Nc2ccc(F)c(Cl)c2)c1N (centres unmarked) [Example 157, sodium sodium (4-(5-(5-amino-4-((3-chloro-4-fluorophenyl)carbamoyl)-1-methyl-1H-pyrazol-3-yl)-2-hydroxyoctahydropentalen-2-yl)-3-(trifluoromethyl)-1H-pyrazol-1-yl)methyl phosphate] | < 0.01 µM
11 | COCCOCCOCCOCCOCCOCCOCCOCCOC(=O)OCn1cc(C2(O)CC3CC(c4nn(C)c(N)c4C(=O)Nc4ccc(F)c(Cl)c4)CC3C2)c(C(F)(F)F)n1 [Example 158, (4-((2r,3aR,5 s,6aS)-5-(5-amino-4-((3-chloro-4-fluorophenyl)carbamoyl)-1-methyl-1H-pyrazol-3-yl)-2-hydroxyoctahydropentalen-2-yl)-3-(trifluoromethyl)-1H-pyrazol-1-yl)methyl (2,5,8,11,14,17,20,23-octaoxapentacosan-25-yl) carbonate] | < 0.01 µM
12 | Cn1nc(C(F)(F)F)cc1C1(O)CC2CC(c3nn(C)c(N)c3C(=O)Nc3ccc(F)c(Cl)c3)CC2C1 (centres unmarked) [Example 159] | 0.01 to 0.05 µM
13 | Cn1nc(C2CC3CC(O)(Cc4nccs4)CC3C2)c(C(=O)Nc2ccc(F)c(Cl)c2)c1N (centres unmarked) [Example 160] | < 0.01 µM
14 | Cc1ncc(C2(O)CC3CC(c4nn(C)c(N)c4C(=O)Nc4ccc(F)c(Cl)c4)CC3C2)s1 (centres unmarked) [Example 161] | < 0.01 µM
15 | Cc1ccc(S(=O)(=O)CC2(O)CC3CC(c4nn(C)c(N)c4C(=O)Nc4ccc(F)c(Cl)c4)CC3C2)cn1 (centres unmarked) [Example 162] | < 0.01 µM
16 | Cn1cc(C(F)(F)F)nc1C1(O)CC2CC(c3nn(C)c(N)c3C(=O)Nc3ccc(F)c(Cl)c3)CC2C1 (centres unmarked) [Example 163] | 0.01 to 0.05 µM
17 | Cn1nc(C2CC3CC(O)(Cc4ccccn4)CC3C2)c(C(=O)Nc2ccc(F)c(Cl)c2)c1N (centres unmarked) [Example 164] | 0.01 to 0.05 µM
18 | Cn1nc(C2CC3CC(O)(c4cc(Br)ncc4F)CC3C2)c(C(=O)Nc2ccc(F)c(Cl)c2)c1N (centres unmarked) [Example 166] | 0.01 to 0.05 µM
19 | Cn1nc(C2CC3CC(O)(c4ncc(C(F)(F)F)n4C)CC3C2)c(C(=O)Nc2ccc(F)c(Cl)c2)c1N (centres unmarked) [Example 167] | 0.01 to 0.05 µM
20 | Cn1nc(C2CC3CC(O)(c4ccc(F)cn4)CC3C2)c(C(=O)Nc2ccc(F)c(Cl)c2)c1N (centres unmarked) [Example 168] | < 0.01 µM
21 | Cn1nc(C2CC3CC(O)(c4ccncc4F)CC3C2)c(C(=O)Nc2ccc(F)c(Cl)c2)c1N (centres unmarked) [Example 169] | < 0.01 µM
22 | Cn1nc(C2CC3CC(O)(c4c[nH]nn4)CC3C2)c(C(=O)Nc2ccc(F)c(Cl)c2)c1N (centres unmarked) [Example 170] | < 0.01 µM

Row | Structure (SMILES) | EC50
23 | Cn1nc(C2CC3CC(O)(c4nn[nH]n4)CC3C2)c(C(=O)Nc2ccc(F)c(Cl)c2)c1N (centres unmarked) [Example 171] | > 0.5 µM
24 | Cn1nnnc1C1(O)CC2CC(c3nn(C)c(N)c3C(=O)Nc3ccc(F)c(Cl)c3)CC2C1 (centres unmarked) [Example 172] | 0.01 to 0.05 µM
25 | Cn1nc(C2CC3CC(O)(c4cn[nH]n4)CC3C2)c(C(=O)Nc2ccc(F)c(Cl)c2)c1N (centres unmarked) [Example 173] | 0.01 to 0.05 µM
26 | Cn1nc(C2CC3CC(O)(c4c(F)cncc4F)CC3C2)c(C(=O)Nc2ccc(F)c(Cl)c2)c1N (centres unmarked) [Example 174] | < 0.01 µM
27 | Cn1nc(C2CC3CC(O)(c4ncccn4)CC3C2)c(C(=O)Nc2ccc(F)c(Cl)c2)c1N (centres unmarked) [Example 175] | < 0.01 µM
28 | Cc1nnc(C2(O)CC3CC(c4nn(C)c(N)c4C(=O)Nc4ccc(F)c(Cl)c4)CC3C2)o1 (centres unmarked) [Example 176] | 0.01 to 0.05 µM
29 | Cc1nc(C2(O)CC3CC(c4nn(C)c(N)c4C(=O)Nc4ccc(F)c(Cl)c4)CC3C2)no1 (centres unmarked) [Example 177] | < 0.01 µM
30 | Cn1nc(C2CC3CC(O)(c4cc[nH]n4)CC3C2)c(C(=O)Nc2ccc(F)c(Cl)c2)c1N (centres unmarked) [Example 178] | < 0.01 µM
31 | Cc1noc(C2(O)CC3CC(c4nn(C)c(N)c4C(=O)Nc4ccc(F)c(Cl)c4)CC3C2)n1 (centres unmarked) [Example 179] | < 0.01 µM
32 | Cc1cc(C2(O)CC3CC(c4nn(C)c(N)c4C(=O)Nc4ccc(F)c(Cl)c4)CC3C2)on1 (centres unmarked) [Example 180] | < 0.01 µM
33 | Cn1nc(C2CC3CC(O)(Cc4ncco4)CC3C2)c(C(=O)Nc2ccc(F)c(Cl)c2)c1N (centres unmarked) [Example 181] | < 0.01 µM
34 | Cn1nc(C2CC3CC(N)(CS(C)(=O)=O)CC3C2)c(C(=O)Nc2ccc(F)c(Cl)c2)c1N (centres unmarked) [Example 182] | > 0.5 µM
35 | Cc1coc(C2(O)CC3CC(c4nn(C)c(N)c4C(=O)Nc4ccc(F)c(Cl)c4)CC3C2)n1 (centres unmarked) [Example 183] | < 0.01 µM
36 | Cc1cnc(C2(O)CC3CC(c4nn(C)c(N)c4C(=O)Nc4ccc(F)c(Cl)c4)CC3C2)o1 (centres unmarked) [Example 184] | < 0.01 µM
37 | Cn1nc(C2CC3CC(N4CCC(F)(C(N)=O)CC4)CC3C2)c(C(=O)Nc2ccc(F)c(Cl)c2)c1N (centres unmarked) [Example 185] | 0.01 to 0.05 µM
38 | COC(=O)C1=CCN(C2CC3CC(c4nn(C)c(N)c4C(=O)Nc4ccc(F)c(Cl)c4)CC3C2)CC1 (centres unmarked) [Example 186] | 0.05 to 0.5 µM
39 | Cn1nc(C2CC3CC(N4CCC(C(N)=O)CC4)CC3C2)c(C(=O)Nc2ccc(F)c(Cl)c2)c1N (centres unmarked) [Example 187] | 0.05 to 0.5 µM
40 | Cn1nc(C2CC3CC(N4CC=C(C(=O)O)CC4)CC3C2)c(C(=O)Nc2ccc(F)c(Cl)c2)c1N (centres unmarked) [Example 188] | > 0.5 µM
41 | Cn1nc(C2CC3CC(N4CC=C(C(N)=O)CC4)CC3C2)c(C(=O)Nc2ccc(F)c(Cl)c2)c1N (centres unmarked) [Example 189] | 0.01 to 0.05 µM
42 | Cn1nc(C2CC3CC(O)(c4cccnn4)CC3C2)c(C(=O)Nc2ccc(F)c(Cl)c2)c1N (centres unmarked) [Example 190] | < 0.01 µM
43 | Cn1nc(C2CC3CC(O)(c4cnccn4)CC3C2)c(C(=O)Nc2ccc(F)c(Cl)c2)c1N (centres unmarked) [Example 191] | < 0.01 µM
44 | CSc1nccc(C2(O)CC3CC(c4nn(C)c(N)c4C(=O)Nc4ccc(F)c(Cl)c4)CC3C2)n1 (centres unmarked) [Example 192] | 0.01 to 0.05 µM
